Data as given in US20260224733A1, “NANOPARTICLES DIRECTED TO CXCR4 AND USE THEREOF” (TECHNION RESEARCH & DEVELOPMENT FOUNDATION LIMITED, priority 2023, published 2026).
Like-named read-outs stand apart in the source and are kept apart here.

Experiments:
Type in all cases: cell-based, human
RPMI8226 cells [1] = experiment: Apoptosis assay (7AAD and Annexin V, flow cytometry); details: 48 h; compared to other treatments tested
Experimental: (§1) In another experiment cells were incubated with 10% plasma obtained from vehicle-treated mice, bortezomib-treated mice (at the 24 h time-point) or ATBL-treated mice at 24, 72 and 168 h time-point post administration. Then cell viability and apoptosis status; healthy, early apoptosis, late apoptosis and dead, were determent using 7AAD and Annexin V staining and were used in accordance with the manufacturer's instruction. At least 50,000 events were acquired using a LSRFortessa flow cytometer (BD) and analyzed with FlowJo 10.
(§2) To determine the therapeutic effect of ATBL compared to free bortezomib, a cell viability and apoptosis assay was used. To this end, CAG and RPMI8226 cells were treated with ATBL, bortezomib in naked liposomes, free bortezomib, AMD on empty liposomes, free AMD, empty naked liposomes and vehicle. […] However, the inventors hypothesized that in an in vivo model, ATBL will have better therapeutic efficacy due to its targeting properties.

CAG cells = experiment: as above; details: 48 h; compared to other treatments tested
Experimental: as §1, §2

RPMI8226 cells [2] = experiment: IC50 of bortezomib and ATBL in RPMI8226 cells; details: for IC50: read-out: half maximal inhibitory concentration (IC50)
Experimental: CAG, U266 and RPMI8226 human MM cells; (American Type Culture Collection; ATCC); KMS-11 (originally from the Japanese Collection of Research Bioresource); human MM cells and MPC-11 murine myeloma cell line (kindly provided by Professor Ralph Sanderson, University of Alabama, USA) and HL60 human acute myeloid leukemia (ATCC) were used. Cells were cultured in RPMI-1640 medium supplemented with 10% fetal bovine serum (FBS), supplemented with 1% L-glutamine, 1% sodium pyruvate and 1% pen-strep-neomycin. All cells were cultured at 37° C. in 5% CO2 for no more than 6 months after being thawed from the authentic stocks.
The half maximal inhibitory concentration (IC50) of bortezomib and ATBL was evaluated in RPMI8226 cells.

- IC50 (RPMI8226 cells [2]; Homo sapiens, RPMI-8226, RPMI8226 cells): 11 nM
- IC50 of bortezomib relative to ATBL (RPMI8226 cells [2]; RPMI8226 cells): ~2 fold
- IC50 (RPMI8226 cells [2]; RPMI8226 cells): 9.13 nM
Compound: CC(C)C[C@H](NC(=O)[C@H](Cc1ccccc1)NC(=O)c1cnccn1)B(O)O [bortezomib, [(1R)-3-methyl-1-[[(2S)-3-phenyl-2-(pyrazine-2-carbonylamino)propanoyl]amino]butyl]boronic acid]
- late apoptosis (RPMI8226 cells [1]): significant higher late apoptosis
- late apoptosis (CAG cells): significant higher late apoptosis
